Test results: patent US12629419B2, “Prevention or mitigation of T-cell engaging agent-related adverse effects” (Hoffmann-La Roche Inc., priority 2020, dated 2026)
Entries after “also recorded” stand apart in the source; their conditions may differ.

Columns and labels:
[1] = cited from earlier work
[2] = tested on: A375 NucLight Red (NLR) target-cells; assay: killing assay with PBMCs, A375 NLR target cells and MAGEA4-TCB (Incucyte); type: cell-based; settings: 25 nM MAGEA4-TCB; 0 nM to 100 nM
[3] = tested on: CD19-TCB-induced cytokine release; assay: CD19-TCB-induced cytokine release in SUDLH-8 assay (Luminex); type: cell-based; settings: 24 hrs; 100 nM inhibitor
Description: (§1) PBMCs were co-cultured together with CellTrace™ Violet (CTV) labelled SUDLH-8 tumor cells and escalating concentrations of CD19-TCB in the presence of the different kinase inhibitors, including also the Src inhibitor dasatinib (FIG. 64). At assay endpoint (24 hrs), the killing of CTV labelled SUDLH-8 cells was measured by flow cytometry by exclusion of the dead SUDLH-8 cells with a Live/Dead stain. […] Lastly, the levels of cytokines were measured in the supernatants of the assay to evaluate the effect of mTOR, JAK and Src inhibitors on CD19-TCB-induced cytokine release.
(§2) At assay endpoint (24 hrs), the killing of CTV labelled SUDLH-8 cells was measured by flow cytometry by exclusion of the dead SUDLH-8 cells with a Live/Dead stain. […] Lastly, the levels of cytokines were measured in the supernatants of the assay to assess the effect of the JAK inhibitors on CD19-TCB-induced cytokine release.
(§3) At assay endpoint (24 hrs), the killing of CTV labelled SUDLH-8 cells was measured by flow cytometry by exclusion of the dead SUDLH-8 cells with a Live/Dead stain to evaluate the effect of the different mitigation approaches on CD19-TCB-dependent killing. […] Lastly, the levels of cytokines were measured in the supernatants of the assay to address the effect of the JAK inhibitors on CD19-TCB-induced cytokine release.

WSU DLCL2 tumor cells = assay: killing assay with PBMCs, CTV labelled WSU DLCL2 tumor cells and CD20-TCB; type: cell-based; settings: 24 hours
Description: FIG. 13. In vitro killing assay set-up.
FIG. 14. […] At 24 hours, the tumor cells and PBMCs from technical replicates were pooled and stained with a LIVE/DEAD™ Near-IR dead cell dye to allow exclusion of dead CTV labelled WSU DLCL2 tumor cells by flow cytometry. Mean of n=3 donors+/−SEM.
(§4) A similar experiment was conducted with another TCB. WSU DLCL2 cells were co-cultured together with PBMCs in the presence of 1 nM CD20-TCB (SEQ ID NOs 4-11, 24-35), and escalating sirolimus doses ranging from 0 nM to 1000 nM (FIG. 13).
(§5) A similar experiment was conducted with another TCB. […] The killing of B cells was measured as a readout for the impact of the various compounds on TCB efficacy at 24 h (FIGS. 27 and 28). […] Lastly, the levels of cytokines (TNF-α, IFN-γ, IL-2, IL-6, IL-4, IL-10, GM-CSF and IL-1β) were analyzed by Luminex at assay endpoint to assess the impact of the different treatments on TCB-induced cytokine release (FIGS. 32 and 33).
(§6) At 24 hours, tumor cell killing was measured by flow cytometry by exclusion of dead CTV cells. The supernatants were collected and cytokines were measured by Luminex.

CD4+ and CD8+ T cells [4] = assay: T cell activation (CD25, CD69) in CD20-TCB killing assay; type: cell-based; settings: 24 hours, concentrations 0 nM to 100 nM
CD4+ and CD8+ T cells [5] = assay: T cell activation (CD25, CD69 by flow cytometry) in CEA-TCB killing assay; type: cell-based; settings: 10 nM CEA-TCB
CD4+ and CD8+ T cells [6] = assay: T cell activation (CD25, CD69) in CD20-TCB killing assay; type: cell-based; settings: 24 hours; CD20-TCB; concentration of 1 μM
Description: as §4
(§7) A similar experiment was conducted with CD20-TCB.
(§8) A similar experiment was conducted with CD20-TCB. WSU DLCL2 cells were co-cultured together with PBMCs in the presence of 1 nM CD20-TCB, and escalating everolimus doses ranging from 0 nM to 1000 nM (FIG. 13).
(§9) A similar experiment was conducted with CD20-TCB. WSU DLCL2 cells were co-cultured together with PBMCs in the presence of 1 nM CD20-TCB, and escalating ruxolitinib doses ranging from 0 nM to 1000 nM (FIG. 13).
as §5, §6

[7] = tested on: CD20-TCB-induced cytokine release; assay: CD20-TCB-induced cytokine release (Luminex); type: cell-based; settings: 24 hours; CD20-TCB; escalating doses
Description: A similar experiment was conducted with another TCB.
as §7, §8, §9, §5, §6

[8] = tested on: MAGEA4-TCB-induced cytokine release; assay: MAGEA4-TCB-induced cytokine release; type: cell-based; settings: 25 nM MAGEA4-TCB; 0 nM to 100 nM
Description: FIG. 45. Effect of escalating concentrations (c) of ruxolitinib on IFN-γ (A), IL-2 (B), TNF-α (C), GM-CSF (D), IL-6 (E), IL-1β (F), IL-8 (G), MCP-1 (H) and IL-10 (I) levels induced by 8 nM MAGEA4-TCB. At 72 hours, the supernatants were collected and cytokines were analyzed by cytometric bead array (CBA). Mean of technical replicates+/−SD for 1 representative donor.
FIG. 47. […] At 72 hours, the supernatants were collected and cytokines were analyzed by CBA. Mean of technical replicates+/−SD for 1 representative donor.
The effect of ruxolitinib on TCB-induced tumor cell killing and cytokine release was assessed using an additional TCB, the MAGEA4-TCB (SEQ ID NOs 37-56).

SUDLH-8 tumor cells = assay: killing assay with PBMCs, CTV labelled SUDLH-8 tumor cells and CD19-TCB; type: cell-based; settings: 24 hrs; 100 nM kinase inhibitors or dexamethasone, 5 μg/mL antibodies
Description: FIG. 64. In vitro killing assay set-up. PBMCs were co-cultured with CellTrace™ Violet (CTV) labelled SUDLH-8 tumor cells (E:T=10:1) in the presence of escalating concentrations of CD19-TCB in media supplemented with the different kinase inhibitors (100 nM) for 24 hrs.
FIG. 69. In vitro killing assay set-up. PBMCs were co-cultured with CTV labelled SUDLH-8 cells (E:T=10:1) in the presence of escalating concentrations of CD19-TCB in media supplemented with the different JAK inhibitors (100 nM) for 24 hrs.
FIG. 73. In vitro killing assay set-up.
as §1, §2, §3

[9] = tested on: CEA-TCB-induced cytokine release; assay: CEA-TCB-induced cytokine release (Luminex, supernatants); settings: 72 hrs; 10 nM CEA-TCB; concentrations 50 nM to 1 μM
Description: The levels of cytokines were measured by Luminex in the supernatants of the assay to determine the impact of the different compounds on CEA-TCB-induced cytokine release.

[10] = tested on: MKN45 NucLight Red (NLR) target cells; assay: killing assay with PBMCs, MKN45 NLR target cells and CEA-TCB (Incucyte); type: cell-based
CD20+ B cells = assay: CD19-TCB-induced B cell depletion in humanized NSG mice; type: in vivo
Text: FIG. 81. In vivo experiment timelines and dosing schedule.
To best reproduce the pharmacodynamic profile of ruxolitinib, dasatinib and sirolimus in the clinic and to verify whether the resulting exposure would be sufficient to prevent CD19-TCB-induced cytokine release, dasatinib and ruxolitinib were given per os twice per day, and sirolimus was given per os twice per day on day 1 and then once per day.
At 48 hrs and 72 hrs, blood was collected by tail-vein bleeding and the CD20+ B cell count was measured by flow cytometry (FIGS. 82A and B) to assess the effect of the different treatments on CD19-TCB-induced B cell depletion. […] Its half-life being around 6-7 hrs and dasatinib being given only twice per day, a lack of exposure could likely explain that CD19-TCB was partially active, resulting in B cell depletion. At experiment termination (72 hrs), spleens were collected and the B cell count was measured by flow-cytometry (FIG. 83). […] However, their inhibitory effect was stronger than methylprednisolone (FIG. 83).

Cc1nc(Nc2ncc(C(=O)Nc3c(C)cccc3Cl)s2)cc(N2CCN(CCO)CC2)n1 [dasatinib]
half-life [1]: 6 to 7 h

CCS(=O)(=O)N1CC(CC#N)(n2cc(-c3ncnc4[nH]ccc34)cn2)C1 [baricitinib, Baricitinib]
MAGEA4-TCB-induced tumor cell killing [2]: comparable to ruxolitinib | CD19-TCB-induced IFN-γ, TNF-α, IL-6 and GM-CSF release [3]: prevented | CD19-TCB-induced cytokine release [3]: as potent as ruxolitinib | CD20-TCB induced tumor cell killing (WSU DLCL2 tumor cells; concentration of 1 μM): slightly reduced | CD20-TCB-induced tumor cell killing (WSU DLCL2 tumor cells; concentrations 0 nM to 100 nM): did not impair; also recorded: did not prevent | T cell activation (CD25 and CD69 on CD4+ and CD8+ T cells) (CD4+ and CD8+ T cells [4]): did not impair; also recorded: did not prevent | expression of CD25 on CD4+ and CD8+ T cells (CD4+ and CD8+ T cells [5]; 72 hours, escalating concentrations, comparably to ruxolitinib): reduced | T cell activation (CD4+ and CD8+ T cells [6]): slightly reduced | levels of IFN-γ, TNF-α, GM-CSF, IL-6 and IL-8 [7]: reduced | MAGEA4-TCB-induced GM-CSF, IL-2, IFN-γ, TNF-α, IL-1β and IL-6 release [8]: comparable to ruxolitinib | CD19-TCB-dependent killing of CTV labelled SUDLH-8 cells (SUDLH-8 tumor cells): did not prevent

C[C@@H]1CCN(C(=O)CC#N)C[C@@H]1N(C)c1ncnc2[nH]ccc12 [tofacitinib, Tofacitinib]
CD19-TCB-induced IFN-γ, TNF-α, IL-6 and GM-CSF release [3]: prevented | CD19-TCB-induced cytokine release [3]: as potent as ruxolitinib | CD19-TCB-dependent killing of CTV labelled SUDLH-8 cells (SUDLH-8 tumor cells): did not prevent

Cc1cnc(Nc2ccc(OCCN3CCCC3)cc2)nc1Nc1cccc(S(=O)(=O)NC(C)(C)C)c1 [fedratinib, Fedratinib]
levels of IFN-γ, IL-2, TNF-α, IL-6 and IL-8 [9]: reduced | MKN45 NLR target cell killing by 10 nM CEA-TCB ([10]; doses below 1 μM): only a minor effect | MKN45 NLR target cell killing by 10 nM CEA-TCB ([10]; inhibitor doses 12.5 nM to 1 μM, 50 000 PBMCs: 5 000 target cells, Incucyte): only partially reduced | expression of CD69 and CD25 on CD4+ T cells and CD8+ T cells (CD4+ and CD8+ T cells [5]; 72 hrs, concentrations below 1 μM): did not affect

obinutuzumab
depletion of B cells in blood (CD20+ B cell count) (CD20+ B cells; 48 hrs and 72 hrs, 0.5 mg/kg CD19-TCB i.v., obinutuzumab pre-treatment 30 mg/kg i.v.): complete depletion | CD19-TCB-induced CD20+ B cell depletion in the spleen (CD20+ B cells; 72 hrs (termination)): complete depletion
